Where “and” joins values, the source holds several entries; their conditions need not be identical. Equal entries are not always repeated. Where two headings read alike, the source gives them in different places.
Tests used:
3hpdh = test: RT-PCR relative mRNA levels of 3-HP degrading genes in various microorganisms (Table 7); type: cell-based, microorganisms shown in Table 1
mmsadh = type: cell-based, microorganisms shown in Table 1
[1] = Achromobacter denitrificans, + 3-HP
[2] = Acidovorax avenae subsp., + 3-HP
[3] = Acinetobacter baumannii, + 3-HP
[4] = Alcanivorax hongdengensis, + 3-HP
[5] = Alicychphilus denitrificans, + 3-HP
[6] = Azospirillum brasilensse, + 3-HP
[7] = Bradyrhizobium japonicum, + 3-HP
[8] = Catenulispora acidiphilia, + 3-HP
[9] = Chromobacterium violaceum, + 3-HP
[10] = Corynebacterium vitaeruminis, + 3-HP
[11] = Glaciecola nitratireducens, + 3-HP
[12] = Janthinobacterium lividum, + 3-HP
[13] = Parvibaculum lavamentivorans, + 3-HP
[14] = Phenylobacterium kunshanensis, + 3-HP
[15] = Polynucleobacter necessarius asymbioticus, + 3-HP
[16] = Pseudomonas denitrificans ATCC13867, + 3-HP
[17] = Pseudomonas fluorescens, + 3-HP
[18] = Pseudomonas knackmussii, + 3-HP
[19] = Psychrobacter phenylpyruvicus, + 3-HP
[20] = Rhodomicrobium vannielli, + 3-HP
[21] = Sphingobium chlorophenolicum, + 3-HP
[22] = Stenotrophomonas maltophilia, + 3-HP
[23] = Verminephrobacter eiseniae, + 3-HP
[24] = Xanthobacter autotrophicus, + 3-HP
[25] = in the microorganisms (Table 7), 25 mM 3-HP in nutrient medium

## O=C(O)CCO [3-HP, 3-hydroxypropionic acid]
3hpdh
  Relative mRNA level 3hpdh + 3-HP: 0.19
3hpdh; [1]
  Relative mRNA level 3hpdh + 3-HP: 0.24
3hpdh; [2]
  Relative mRNA level 3hpdh + 3-HP: 0.28
3hpdh; Acidovorax sp., + 3-HP
  Relative mRNA level 3hpdh + 3-HP: 0.31
3hpdh; [3]
  Relative mRNA level 3hpdh + 3-HP: 0.19
3hpdh; Agrobacterium sp., + 3-HP
  Relative mRNA level 3hpdh + 3-HP: 0.27
3hpdh; Alcaligenes faecalis, + 3-HP
  Relative mRNA level 3hpdh + 3-HP: 0.26
3hpdh; [4]
  Relative mRNA level 3hpdh + 3-HP: 0.27
3hpdh; [5]
  Relative mRNA level 3hpdh + 3-HP: 0.30
3hpdh; Alteromonas marina, + 3-HP
  Relative mRNA level 3hpdh + 3-HP: 0.34
3hpdh; [6]
  Relative mRNA level 3hpdh + 3-HP: 0.41
3hpdh; Bordetella avium, + 3-HP
  Relative mRNA level 3hpdh + 3-HP: 0.45
3hpdh; [7]
  Relative mRNA level 3hpdh + 3-HP: 0.52
3hpdh; Burkholderia ambifaria, + 3-HP
  Relative mRNA level 3hpdh + 3-HP: 0.31
3hpdh; [8]
  Relative mRNA level 3hpdh + 3-HP: 0.41
3hpdh; Caulobacter sp., + 3-HP
  Relative mRNA level 3hpdh + 3-HP: 0.45
3hpdh; [9]
  Relative mRNA level 3hpdh + 3-HP: 0.25
3hpdh; Comamonas testosteroni, + 3-HP
  Relative mRNA level 3hpdh + 3-HP: 0.24
3hpdh; [10]
  Relative mRNA level 3hpdh + 3-HP: 0.28
3hpdh; Cupriavidus necator, + 3-HP
  Relative mRNA level 3hpdh + 3-HP: 0.21
3hpdh; [11]
  Relative mRNA level 3hpdh + 3-HP: 0.30
3hpdh; Gordonia bronchialis, + 3-HP
  Relative mRNA level 3hpdh + 3-HP: 0.29
3hpdh; Hahella chijuensis, + 3-HP
  Relative mRNA level 3hpdh + 3-HP: 0.28
3hpdh; Halomonas elongata, + 3-HP
  Relative mRNA level 3hpdh + 3-HP: 0.32
3hpdh; Hirschia litorea, + 3-HP
  Relative mRNA level 3hpdh + 3-HP: 0.34
3hpdh; Idiomarina sp., + 3-HP
  Relative mRNA level 3hpdh + 3-HP: 0.42
3hpdh; [12]
  Relative mRNA level 3hpdh + 3-HP: 0.33
3hpdh; Kitasatospora setae, + 3-HP
  Relative mRNA level 3hpdh + 3-HP: 0.36
3hpdh; Kutzneria albida, + 3-HP
  Relative mRNA level 3hpdh + 3-HP: 0.41
3hpdh; Methylobacterium sp., + 3-HP
  Relative mRNA level 3hpdh + 3-HP: 0.45
3hpdh; Novosphingobium sp., + 3-HP
  Relative mRNA level 3hpdh + 3-HP: 0.39
3hpdh; Oceanimonas smirnovii, + 3-HP
  Relative mRNA level 3hpdh + 3-HP: 0.24
3hpdh; Paracoccus sp., + 3-HP
  Relative mRNA level 3hpdh + 3-HP: 0.25
3hpdh; [13]
  Relative mRNA level 3hpdh + 3-HP: 0.28
3hpdh; [14]
  Relative mRNA level 3hpdh + 3-HP: 0.33
3hpdh; [15]
  Relative mRNA level 3hpdh + 3-HP: 0.45
3hpdh; Pseudogulbenkiania sp., + 3-HP
  Relative mRNA level 3hpdh + 3-HP: 0.26
3hpdh; [16]
  Relative mRNA level 3hpdh + 3-HP: 0.23
3hpdh; [17]
  Relative mRNA level 3hpdh + 3-HP: 0.27
3hpdh; [18]
  Relative mRNA level 3hpdh + 3-HP: 0.25
3hpdh; Pseudomonas protegens, + 3-HP
  Relative mRNA level 3hpdh + 3-HP: 0.19
3hpdh; [19]
  Relative mRNA level 3hpdh + 3-HP: 0.37
3hpdh; [20]
  Relative mRNA level 3hpdh + 3-HP: 0.41
3hpdh; Segniliparus rotundus, + 3-HP
  Relative mRNA level 3hpdh + 3-HP: 0.27
3hpdh; Shewanella oneidensis, + 3-HP
  Relative mRNA level 3hpdh + 3-HP: 0.28
3hpdh; Simiduia agarovorans, + 3-HP
  Relative mRNA level 3hpdh + 3-HP: 0.29
3hpdh; [21]
  Relative mRNA level 3hpdh + 3-HP: 0.33
3hpdh; Sphingomonas wittichii, + 3-HP
  Relative mRNA level 3hpdh + 3-HP: 0.45
3hpdh; [22]
  Relative mRNA level 3hpdh + 3-HP: 0.31
3hpdh; Streptomyces nodosus, + 3-HP
  Relative mRNA level 3hpdh + 3-HP: 0.39
3hpdh; [23]
  Relative mRNA level 3hpdh + 3-HP: 0.43
3hpdh; Vibrio furnissii, + 3-HP
  Relative mRNA level 3hpdh + 3-HP: 0.39
3hpdh; [24]
  Relative mRNA level 3hpdh + 3-HP: 0.27
3hpdh; Xanthomonas campestri, + 3-HP
  Relative mRNA level 3hpdh + 3-HP: 0.25
3hpdh; [25]
  increase of expression of 3hpdh by 3-HP: 6 fold
mmsadh
  Relative mRNA level mmsadh + 3-HP: 5.21 and 5.19
mmsadh; [1]
  Relative mRNA level mmsadh + 3-HP: 6.34
mmsadh; [2]
  Relative mRNA level mmsadh + 3-HP: 5.98
mmsadh; Acidovorax sp., + 3-HP
  Relative mRNA level mmsadh + 3-HP: 6.04
mmsadh; [3]
  Relative mRNA level mmsadh + 3-HP: 5.76
mmsadh; Aeromonas hydrophilia, + 3-HP
  Relative mRNA level mmsadh + 3-HP: 6.14
mmsadh; Agrobacterium sp., + 3-HP
  Relative mRNA level mmsadh + 3-HP: 6.56
mmsadh; Alcaligenes faecalis, + 3-HP
  Relative mRNA level mmsadh + 3-HP: 5.73
mmsadh; [4]
  Relative mRNA level mmsadh + 3-HP: 6.58
mmsadh; [5]
  Relative mRNA level mmsadh + 3-HP: 6.01
mmsadh; Alteromonas marina, + 3-HP
  Relative mRNA level mmsadh + 3-HP: 5.73
mmsadh; Amycolatopsis sp., + 3-HP
  Relative mRNA level mmsadh + 3-HP: 6.05
mmsadh; Anaeromyxobacter dehalogenans, + 3-HP
  Relative mRNA level mmsadh + 3-HP: 5.44
mmsadh; [6]
  Relative mRNA level mmsadh + 3-HP: 6.05
mmsadh; Azotobacter vinelandii, + 3-HP
  Relative mRNA level mmsadh + 3-HP: 5.87
mmsadh; Beijerinckia indica, + 3-HP
  Relative mRNA level mmsadh + 3-HP: 5.01
mmsadh; Bordetella avium, + 3-HP
  Relative mRNA level mmsadh + 3-HP: 4.98
mmsadh; [7]
  Relative mRNA level mmsadh + 3-HP: 5.49
mmsadh; Burkholderia ambifaria, + 3-HP
  Relative mRNA level mmsadh + 3-HP: 5.13
mmsadh; Castellaniella defragrans, + 3-HP
  Relative mRNA level mmsadh + 3-HP: 5.98
mmsadh; [8]
  Relative mRNA level mmsadh + 3-HP: 5.24
mmsadh; Caulobacter sp., + 3-HP
  Relative mRNA level mmsadh + 3-HP: 5.96
mmsadh; [9]
  Relative mRNA level mmsadh + 3-HP: 6.31
mmsadh; Collimonas arenae, + 3-HP
  Relative mRNA level mmsadh + 3-HP: 5.87
mmsadh; Comamonas testosteroni, + 3-HP
  Relative mRNA level mmsadh + 3-HP: 4.96
mmsadh; [10]
  Relative mRNA level mmsadh + 3-HP: 5.89
mmsadh; Cupriavidus necator, + 3-HP
  Relative mRNA level mmsadh + 3-HP: 6.05
mmsadh; Curvibacter gracilus, + 3-HP
  Relative mRNA level mmsadh + 3-HP: 3.99
mmsadh; Delftia acidovorans, + 3-HP
  Relative mRNA level mmsadh + 3-HP: 4.03
mmsadh; Ferrimonas balearica, + 3-HP
  Relative mRNA level mmsadh + 3-HP: 5.17
mmsadh; [11]
  Relative mRNA level mmsadh + 3-HP: 4.81
mmsadh; Gordonia bronchialis, + 3-HP
  Relative mRNA level mmsadh + 3-HP: 5.21
mmsadh; Hahella chijuensis, + 3-HP
  Relative mRNA level mmsadh + 3-HP: 5.97
mmsadh; Halomonas elongata, + 3-HP
  Relative mRNA level mmsadh + 3-HP: 4.34
mmsadh; Hirschia litorea, + 3-HP
  Relative mRNA level mmsadh + 3-HP: 4.56
mmsadh; Idiomarina sp., + 3-HP
  Relative mRNA level mmsadh + 3-HP: 5.43
mmsadh; [12]
  Relative mRNA level mmsadh + 3-HP: 5.01
mmsadh; Kitasatospora setae, + 3-HP
  Relative mRNA level mmsadh + 3-HP: 5.25
mmsadh; Kutzneria albida, + 3-HP
  Relative mRNA level mmsadh + 3-HP: 5.61
mmsadh; Methylobacterium sp., + 3-HP
  Relative mRNA level mmsadh + 3-HP: 598
mmsadh; Methylocystis sp., + 3-HP
  Relative mRNA level mmsadh + 3-HP: 4.91
mmsadh; Novosphingobium sp., + 3-HP
  Relative mRNA level mmsadh + 3-HP: 6.04
mmsadh; Oceanimonas smirnovii, + 3-HP
  Relative mRNA level mmsadh + 3-HP: 4.88
mmsadh; Paracoccus sp., + 3-HP
  Relative mRNA level mmsadh + 3-HP: 4.96
mmsadh; [13]
  Relative mRNA level mmsadh + 3-HP: 4.99
mmsadh; [14]
  Relative mRNA level mmsadh + 3-HP: 5.02
mmsadh; Photobacterium gaetbuleda, + 3-HP
  Relative mRNA level mmsadh + 3-HP: 5.06
mmsadh; [15]
  Relative mRNA level mmsadh + 3-HP: 5.37
mmsadh; Pseudoalteromonas carrgeenovora, + 3-HP
  Relative mRNA level mmsadh + 3-HP: 5.03
mmsadh; Pseudogulbenkiania sp., + 3-HP
  Relative mRNA level mmsadh + 3-HP: 5.36
mmsadh; [16]
  Relative mRNA level mmsadh + 3-HP: 5.43
mmsadh; [17]
  Relative mRNA level mmsadh + 3-HP: 4.70
mmsadh; [18]
  Relative mRNA level mmsadh + 3-HP: 5.96
mmsadh; Pseudomonas protegens, + 3-HP
  Relative mRNA level mmsadh + 3-HP: 5.01
mmsadh; Pseudoxanthomonas spadix, + 3-HP
  Relative mRNA level mmsadh + 3-HP: 4.96
mmsadh; [19]
  Relative mRNA level mmsadh + 3-HP: 5.03
mmsadh; [20]
  Relative mRNA level mmsadh + 3-HP: 6.02
mmsadh; Segniliparus rotundus, + 3-HP
  Relative mRNA level mmsadh + 3-HP: 4.32
mmsadh; Shewanella oneidensis, + 3-HP
  Relative mRNA level mmsadh + 3-HP: 4.07
mmsadh; Simiduia agarovorans, + 3-HP
  Relative mRNA level mmsadh + 3-HP: 4.87
mmsadh; Sinorhizobium meliloti, + 3-HP
  Relative mRNA level mmsadh + 3-HP: 4.07
mmsadh; [21]
  Relative mRNA level mmsadh + 3-HP: 4.86
mmsadh; Sphingomonas wittichii, + 3-HP
  Relative mRNA level mmsadh + 3-HP: 6.42
mmsadh; Sphingopyxis alaskensis, + 3-HP
  Relative mRNA level mmsadh + 3-HP: 6.94
mmsadh; [22]
  Relative mRNA level mmsadh + 3-HP: 5.21
mmsadh; Streptomyces nodosus, + 3-HP
  Relative mRNA level mmsadh + 3-HP: 5.14
mmsadh; Tatlockia micdadei, + 3-HP
  Relative mRNA level mmsadh + 3-HP: 5.65
mmsadh; Thalassospira xiamenensis, + 3-HP
  Relative mRNA level mmsadh + 3-HP: 6.10
mmsadh; Variovorax paradoxus, + 3-HP
  Relative mRNA level mmsadh + 3-HP: 4.97
mmsadh; [23]
  Relative mRNA level mmsadh + 3-HP: 5.14
mmsadh; Vibrio furnissii, + 3-HP
  Relative mRNA level mmsadh + 3-HP: 4.91
mmsadh; [24]
  Relative mRNA level mmsadh + 3-HP: 5.41
mmsadh; Xanthomonas campestri, + 3-HP
  Relative mRNA level mmsadh + 3-HP: 5.09
mmsadh; [25]
  increase of expression of mmsadh by 3-HP: 16 fold

Source: patent publication US10961539B2, “Promoter system inducing expression by 3-hydroxypropionic acid and method for biological production of 3-hydroxypropionic acid using same” (NOROO IC Co., Ltd., priority 2015, dated 2021)
